Values of other authors in PubChem BioAssay AID1259409 (Chemical Carcinogenesis Research Information System (CCRIS), 2018).

System: rodent chemically induced tumor inhibition, incidence and multiplicity
Assay: CCRIS tumor inhibitor studies
[1] = Carcinogen: BENZO[A]PYRENE, 50-32-8, Dose [Inhibitor]: 0.03 MMOL/G OF DIET DAILY STARTING 7 D BEFORE AND CONTINUING THROUGH 3 D AFTER CARCINOGEN TREATMENT FOLLOWED BY OBSERVAT, Route [Inhibitor]: ORAL, Species: MOUSE, Strain/Sex: ICR/FEMALE, Target Tissue: Type of Lesion: FORESTOMACH: NEOPLASM, Dose [Carcinogen]: 1 MG IN 0.2 ML CORN OIL 2/WK FOR 4 WK, Promoter: NONE USED

## C/C1=C\C=C(\C(C)C)[C@@H](O)C/C(C)=C/CC/C(C)=C/CC1
Carcinogen: N-METHYL-N-NITROSOUREA, 684-93-5, Dose [Inhibitor]: 0.01% IN DIET BEGINNING 1 WK POST LAST CARCINOGEN DOSE (STUDY DURATION: 26 WK), Route [Inhibitor]: ORAL, Species: RAT, Strain/Sex: CD-FISCHER/FEMALE, Target Tissue: Type of Lesion: LARGE INTESTINE: TUMOR, Dose [Carcinogen]: 2 MG IN WATER 3/WK FOR 3 WK, Promoter: NONE USED
  tumour outcome (control, treated, inhibition, significance): 22/26 (85%), 15/26 (58%), 32%, p<0.01-p<0.05
Carcinogen: N-METHYL-N-NITROSOUREA, 684-93-5, Dose [Inhibitor]: 0.01% IN DIET BEGINNING WEEK 1 AND CONTINUING FOR DURATION OF STUDY (STUDY DURATION: 26 WK), Route [Inhibitor]: ORAL, Species: RAT, Strain/Sex: CD-FISCHER/FEMALE, Target Tissue: Type of Lesion: LARGE INTESTINE: TUMOR, Dose [Carcinogen]: 2 MG IN WATER 3/WK FOR WEEKS 1-3, Promoter: NONE USED
  tumour outcome (control, treated, inhibition, significance): 22/26 (85%), 13/26 (50%), 41%, p<0.01-p<0.05
Carcinogen: N-NITROSOBIS(2-HYDROXYPROPYL)AMINE, 53609-64-6, Dose [Inhibitor]: 0, 0.01% IN DIET FOR 27 WK (STUDY DURATION: 27 WK), Route [Inhibitor]: ORAL, Species: HAMSTER, Strain/Sex: SYRIAN/FEMALE, Target Tissue: Type of Lesion: PANCREAS: TUMOR, Dose [Carcinogen]: 500 MG/KG IN OLIVE OIL 1/WK FOR 27 WK, Promoter: NONE USED
  tumour outcome (control, treated, inhibition, significance): 11/22 (50%), 4/20 (20%), 60%, p<0.05

## CC(C)(C)c1cc(Cc2cc(C(C)(C)C)c(O)c(C(C)(C)C)c2)cc(C(C)(C)C)c1O
[1]
  tumour outcome (control, treated, inhibition, significance): 94%, 100%, -6%, not significant

## CC(C)(C)c1cccc(C(C)(C)C)c1O
[1]
  tumour outcome (control, treated, inhibition, significance): 94%, 79%, 16%, not significant

## CC(C)(c1ccc(O)cc1)c1ccc(O)cc1
Carcinogen: N-NITROSOBIS(2-HYDROXYPROPYL)AMINE, 53609-64-6, Dose [Inhibitor]: 0, 10000 PPM IN DIET FOR 27 WK BEGINNING 9 WK POST CARCINOGEN TREATMENT (STUDY DURATION: 37 WK), Route [Inhibitor]: ORAL, Species: RAT, Strain/Sex: F344/FEMALE, Target Tissue: Type of Lesion: THYROID GLAND: ADENOMA, Dose [Carcinogen]: 2000 MG/KG BW 1 WK POST BILATERAL OVARIECTOMY, Promoter: SULFADIMETHOXINE, 122-11-2
  outcome: 0/12 (0%), 0/15 (0%), 0%, not significant
Carcinogen: N-NITROSOBIS(2-HYDROXYPROPYL)AMINE, 53609-64-6, Dose [Inhibitor]: 0, 10000 PPM IN DIET FOR 27 WK BEGINNING 9 WK POST CARCINOGEN TREATMENT (STUDY DURATION: 37 WK), Route [Inhibitor]: ORAL, Species: RAT, Strain/Sex: F344/FEMALE, Target Tissue: Type of Lesion: THYROID GLAND: CARCINOMA, Dose [Carcinogen]: 2000 MG/KG BW 1 WK POST BILATERAL OVARIECTOMY, Promoter: SULFADIMETHOXINE, 122-11-2
  tumour outcome (control, treated, inhibition, significance): 10/12 (83%), 4/15 (27%), 67%, p<0.01

## C
Carcinogen: N-METHYL-N'-NITRO-N-NITROSOGUANIDINE [70-25-7], Dose [Inhibitor]: 100 MG/KG BW AQUALEN (ACTIVATED CARBON FIBER ADSORBENT) IN DIET 5X/WK FOR 16 MONTHS (STUDY DURATION: 16 MONTHS), Route [Inhibitor]: ORAL, Species: RAT, Strain/Sex: LIO/FEMALE, Target Tissue: Type of Lesion: DUODENUM: ADENOCARCINOMA, Dose [Carcinogen]: 100 MG/L IN DRINKING WATER 5X/WK FOR 12 MONTHS (STUDY DURATION: 16 MONTHS), Promoter: NONE
  tumour outcome (control, treated, inhibition, significance): 2/14 (14.3%), 0/13 (0.0%), 100%, not significant
Carcinogen: N-METHYL-N'-NITRO-N-NITROSOGUANIDINE [70-25-7], Dose [Inhibitor]: 100 MG/KG BW AQUALEN (ACTIVATED CARBON FIBER ADSORBENT) IN DIET 5X/WK FOR 16 MONTHS (STUDY DURATION: 16 MONTHS), Route [Inhibitor]: ORAL, Species: RAT, Strain/Sex: LIO/FEMALE, Target Tissue: Type of Lesion: LIVER: CYSTOCHOLANGIOMA, Dose [Carcinogen]: 100 MG/L IN DRINKING WATER 5X/WK FOR 12 MONTHS (STUDY DURATION: 16 MONTHS), Promoter: NONE
  tumour outcome (control, treated, inhibition, significance): 2/14 (14.3%), 0/13 (0.0%), 100%, not significant
Carcinogen: N-METHYL-N'-NITRO-N-NITROSOGUANIDINE [70-25-7], Dose [Inhibitor]: 100 MG/KG BW AQUALEN (ACTIVATED CARBON FIBER ADSORBENT) IN DIET 5X/WK FOR 16 MONTHS (STUDY DURATION: 16 MONTHS), Route [Inhibitor]: ORAL, Species: RAT, Strain/Sex: LIO/FEMALE, Target Tissue: Type of Lesion: STOMACH: CARCINOMA IN SITU, Dose [Carcinogen]: 100 MG/L IN DRINKING WATER 5X/WK FOR 12 MONTHS (STUDY DURATION: 16 MONTHS), Promoter: NONE
  tumour outcome (control, treated, inhibition, significance): 1/14 (7.1%), 4/13 (30.8%), -334%, not significant
Carcinogen: N-METHYL-N'-NITRO-N-NITROSOGUANIDINE [70-25-7], Dose [Inhibitor]: 100 MG/KG BW AQUALEN (ACTIVATED CARBON FIBER ADSORBENT) IN DIET 5X/WK FOR 16 MONTHS (STUDY DURATION: 16 MONTHS), Route [Inhibitor]: ORAL, Species: RAT, Strain/Sex: LIO/FEMALE, Target Tissue: Type of Lesion: STOMACH: INVASIVE ADENOCARCINOMA, Dose [Carcinogen]: 100 MG/L IN DRINKING WATER 5X/WK FOR 12 MONTHS (STUDY DURATION: 16 MONTHS), Promoter: NONE
  tumour outcome (control, treated, inhibition, significance): 5/14 (35.7%), 1/13 (7.7%), 78%, p<0.05

## S=C=NC(Cc1ccccc1)c1ccccc1 (stereo not drawn)
Carcinogen: 4-(METHYLNITROSAMINO)-1-(3-PYRIDYL)-1-BUTANONE, 64091-91-4, Dose [Inhibitor]: 0, 1 UMOL ONCE 2 HR PRIOR TO CARCINOGEN DOSE (STUDY DURATION: 16 WK), Route [Inhibitor]: GAVAGE, Species: MOUSE, Strain/Sex: STRAIN-A/FEMALE, Target Tissue: Type of Lesion: LUNG: ADENOMA, Dose [Carcinogen]: 10 UMOL IN 0.1 ML SALINE ONCE, Promoter: NONE USED
  tumour outcome (control, treated, inhibition, significance): 100%, 60%, 40%, p<0.05
Carcinogen: 4-(METHYLNITROSAMINO)-1-(3-PYRIDYL)-1-BUTANONE, 64091-91-4, Dose [Inhibitor]: 0, 5 UMOL ONCE 2 HR PRIOR TO CARCINOGEN DOSE (STUDY DURATION: 16 WK), Route [Inhibitor]: GAVAGE, Species: MOUSE, Strain/Sex: STRAIN-A/FEMALE, Target Tissue: Type of Lesion: LUNG: ADENOMA, Dose [Carcinogen]: 10 UMOL IN 0.1 ML SALINE ONCE, Promoter: NONE USED
  tumour outcome (control, treated, inhibition, significance): 100%, 45%, 55%, p<0.05
